In one assay the target is T1, DRB3 (Homo sapiens, UniProt P01903+P79483).
T1 construct: endogenous in cells
The experiment in a line: HLA-DR peptide binding assay (competition), DRB3.

A further assay has as its target T2, DRB4 (Homo sapiens, UniProt P01903+P13762).
T2 construct: endogenous in cells
The experiment in a line: HLA-DR peptide binding assay (competition), DRB4.

The next assay deals with CD4+ T cell clone 3. The experiment in a line: Recognition assay with peptides: IFN-γ production (ELISA) by CD4+ T cell clone 3 co-cultured with peptide-pulsed EBV-B cells. It counts as cell-based, human. The following applies: for IFN-γ production clone 3: 2 h with 5 μg/ml peptide, overnight co-culture. As for the experimental part:
Recognition assays with peptides. Peptides were synthesized on solid phase using Fmoc for transient NH2-terminal protection and were characterized using mass spectrometry. All peptides were >90% pure, as indicated by analytical HPLC. Lyophilized peptides were dissolved at 5 mg/ml in 10 mM acetic acid and 10% DMSO, and stored at −20° C. EBV-B cells were distributed at 20,000 cells per round-bottomed microwell and incubated for 2 h at 37° C. in the presence of the different peptides, the indicated concentrations representing their concentrations during the incubation step. CD4^+ T lymphocytes (5,000) were added in 100 μl of complete IMDM (Gibco BRL) medium supplemented with IL-2 (25 U/ml). Supernatants were harvested after 20 h of co-culture and IFN-γ production was measured by ELISA. The peptides used in FIG. 6 correspond to the MAGE-1260-275, MAGE-2267-282, MAGE-3267-282, MAGE-4268-283, MAGE-6267-282, MAGE-10292-307, MAGE-11270-285, and MAGE-12267-282 protein sequences.
We tested for recognition by each of the three clones autologous EBV-B cells pulsed with a set of peptides of 16 amino acids, overlapping by 12 residues and covering the complete MAGE-3 sequence. DDHK2 EBV-B cells were distributed in microwells (2×10^4 cells) and incubated for 2 h with the indicated concentrations of peptides. 5×10^3 cells from each autologous CD4^+ T cell clone were added and the presence of IFN-γ in the supernatant was measured by ELISA after overnight co-culture. The results shown in FIG. 6 represent the average of triplicate co-cultures.
Background: In an ELISA, binding on a coated surface is turned into a signal by an enzyme label.

What is called IC50 is the concentration that gives 50% inhibition.

Where only a bound is given, the exact number is not on record here.

On to `CC(C)C[C@H](NC(=O)[C@H](C)NC(=O)[C@H](CCCNC(=N)N)NC(=O)[C@@H]1CCCN1C(=O)CNC(=O)[C@H](Cc1c[nH]c2ccccc12)NC(=O)[C@H](CC(C)C)NC(=O)[C@H](Cc1ccccc1)NC(=O)[C@H](CCC(=O)O)NC(=O)[C@H](Cc1ccc(O)cc1)NC(=O)[C@H](CS)NC(=O)[C@H](C)N)C(=O)N[C@H](C(=O)N[C@@H](CCC(=O)O)C(=O)N[C@H](C(=O)N[C@@H](CO)C(=O)O)[C@@H](C)O)C(C)C`, for which the “binding to purified HLA-DR molecules (in words)” value at DRB3 (competition assay) is on record as “No binding was observed”; on DRB4 (DRB4, competition assay), “bound”. Further, the IC50 on DRB3 (competition with biotinylated LOL 191-210 5 nM, pH 5.5, read-out: IC50 (nM) of MAGE-3267-282) is > 10000 nM. The “Ratios IC50 MAGE-3/IC50 reference” value on DRB4 amounted to 70. Moreover, the “IFN-γ production clone 3” value in the assay with CD4+ T cell clone 3 (EBV-B cell line DDHK2 (DR1 DR15 DR51, DR1 positive)) is >4,000 pg/ml; with CD4+ T cell clone 3 (EBV-B cell line LB650 (DR7 DR15 DR51 DR53, DR1 negative)) it was 150 pg/mL; in the assay on CD4+ T cell clone 3 (EBV-B cell line LB831 (DR1 DR7 DR53, DR1 positive)) it was 1,371 pg/ml; with CD4+ T cell clone 3 (EBV-B cell line LB1158 (DR1 DR13 DR52, DR1 positive)), 1,698 pg/ml; in the assay with CD4+ T cell clone 3 (EBV-B cell line LB1856 (DR15, DR1 negative)), 164 pg/mL; with CD4+ T cell clone 3 (EBV-B cell line LB1870 (DR15 DR53 DR7, DR1 negative)), 119 pg/mL. Besides, the “IFN-γ production clone 3” value was 125 pg/mL in the assay with CD4+ T cell clone 3 (EBV-B cell line LB2095 (DR13 DR15 DR51 DR52, DR1 negative)) and 2,053 pg/ml in the assay with CD4+ T cell clone 3 (EBV-B cell line LB2138 (DR1 DR13, DR1 positive)). In addition, the “most efficiently recognized peptide for clone 3” value in the assay on CD4+ T cell clone 3 (FIG. 6, comparison with shorter peptides) is “most efficiently recognized peptide”. Also, in the assay on CD4+ T cell clone 3 (FIG. 6, set of 16 amino acid peptides overlapping by 12 residues), the “production of IFN-γ by clone 3 stimulated by peptide-pulsed autologous EBV-B cells” value is recorded as “stimulated the production of IFN-γ”. Also, the “recognition by clone 3 of peptide-loaded autologous EBV-B cells in the presence of anti-HLA-DR, -DP or -DQ antibodies” value with CD4+ T cell clone 3 (data not shown) was “abolished by an anti-HLA-DR antibody, but not by antibodies against HLA-DP or HLA-DQ”.

Values taken from patent publication US7388072B2, “MAGE peptides presented by HLA class II molecules” (priority 2001, dated 2008).
